Measurements from ChEMBL document CHEMBL1157530, “Cytotoxic and antibacterial sesquiterpenes from Thespesia populnea” (J Nat Prod, 2008).
In brackets after ≈: the same amount, converted by molar mass.

Columns and labels:
[1] = tested on: KB; test: Cytotoxicity against human KB cells by SRB assay; type: functional, cell-based
[2] = tested on: MCF7; test: Cytotoxicity against human MCF7 cells by SRB assay; type: functional, cell-based
[3] = tested on: HeLa; test: Cytotoxicity against human HeLa cells by SRB assay; type: functional, cell-based
[4] = tested on: HT-29; test: Cytotoxicity against human HT29 cells by SRB assay; type: functional, cell-based
[5] = tested on: Bacillus subtilis; test: Antibacterial activity against Bacillus subtilis; type: functional
[6] = tested on: Staphylococcus aureus; test: Antibacterial activity against Staphylococcus aureus TISTR517; type: functional
[7] = tested on: Enterococcus faecalis; test: Antibacterial activity against Enterococcus faecalis; type: functional

Question: `Cc1cc2c(C(C)C)ccc(C)c2cc1O` was tested. Which IC50 [1] did it give?
Answer: The IC50 was over 5 µg/mL.

Question: And the IC50 [2]?
Answer: Its IC50 is over 5 µg/mL.

Question: And the IC50 [3]?
Answer: The IC50 was over 5 µg/mL.

Question: What about the IC50 [4] of the same compound?
Answer: The IC50 was over 5 µg/mL.

Question: And the MIC [5]?
Answer: The MIC was 0.59 µg/mL (≈ 2.75 µM).

Question: For `COc1c(O)c(C=O)c2c(O)c(-c3c(C)cc4c(C(C)C)c(OC)c(O)c(C=O)c4c3O)c(C)cc2c1C(C)C` [6,6'-METHOXYGOSSYPOL], which IC50 [1] is on record?
Answer: Its IC50 is over 5 µg/mL.

Question: And the IC50 [2]?
Answer: Its IC50 is 4 µg/mL (≈ 7.32 µM).

Question: What about the MIC [6] of the same compound?
Answer: Its MIC is 4.69 µg/mL (≈ 8.58 µM).

Question: And the IC50 [3]?
Answer: The IC50 was over 5 µg/mL.

Question: And the IC50 [4]?
Answer: The IC50 was 3 µg/mL (≈ 5.49 µM).

Question: What about the MIC [7] of the same compound?
Answer: The MIC was 1.17 µg/mL (≈ 2.14 µM).

Question: And the MIC [5]?
Answer: Its MIC is 2.34 µg/mL (≈ 4.28 µM).

Question: `Cc1cc2c(C(C)C)c(O)c(O)c(C=O)c2c(O)c1-c1c(C)cc2c(C(C)C)c(O)c(O)c(C=O)c2c1O` [GOSSYPOL] was tested. Which IC50 [1] did it give?
Answer: The IC50 was 0.04 µg/mL (≈ 0.0771 µM).

Question: What about the MIC [6] of the same compound?
Answer: Its MIC is 1.17 µg/mL (≈ 2.26 µM).

Question: And the IC50 [3]?
Answer: The IC50 was 0.08 µg/mL (≈ 0.154 µM).

Question: And the IC50 [4]?
Answer: The IC50 was over 5 µg/mL.

Question: What about the MIC [5] of the same compound?
Answer: The MIC was 1.17 µg/mL (≈ 2.26 µM).

Question: With `CC1=Cc2c(c(C)cc3c2C(C)CO3)C(=O)C1=O` (configuration not stated) [MANSONONE D] as the compound, how does the IC50 [1] read?
Answer: The IC50 was 4.9 µg/mL (≈ 20.2 µM).

Question: And the IC50 [2]?
Answer: Its IC50 is 0.8 µg/mL (≈ 3.3 µM).

Question: What about the IC50 [3] of the same compound?
Answer: Its IC50 is 2.8 µg/mL (≈ 11.6 µM).

Question: What about the IC50 [4] of the same compound?
Answer: The IC50 was over 5 µg/mL.

Question: And the MIC [5]?
Answer: Its MIC is 2.34 µg/mL (≈ 9.66 µM).

Question: Which results are given for `CC1=C2OCC(C)c3ccc(C)c(c32)C(=O)C1=O` (configuration not stated) [MANSONONE E]?
Answer: IC50 [1]: 0.4 µg/mL (≈ 1.65 µM); IC50 [2]: 0.05 µg/mL (≈ 0.206 µM); IC50 [3]: 0.55 µg/mL (≈ 2.27 µM); IC50 [4]: 0.18 µg/mL (≈ 0.743 µM); MIC [5]: 4.69 µg/mL (≈ 19.4 µM)

Question: Which IC50 [1] does the source give for `CC1=CC2=C(C(C)C)C(=O)CC(C)C2=C(O)C1=O` (configuration not stated) [MANSONONE S] here?
Answer: Its IC50 is over 5 µg/mL.

Question: What about the IC50 [2] of the same compound?
Answer: Its IC50 is over 5 µg/mL.

Question: And the IC50 [3]?
Answer: Its IC50 is over 5 µg/mL.

Question: What about the IC50 [4] of the same compound?
Answer: Its IC50 is over 5 µg/mL.

Question: `CC1=Cc2c(c(C)cc3c2C(C)COC3(C)C)C(=O)C1=O` (configuration not stated) [POPULENE C] was tested. Which IC50 [1] did it give?
Answer: The IC50 was 3 µg/mL (≈ 10.6 µM).

Question: And the IC50 [2]?
Answer: Its IC50 is 2.35 µg/mL (≈ 8.26 µM).

Question: And the MIC [6]?
Answer: Its MIC is over 10 µg/mL.

Question: And the IC50 [3]?
Answer: The IC50 was 3.4 µg/mL (≈ 12 µM).

Question: And the IC50 [4]?
Answer: The IC50 was 2.9 µg/mL (≈ 10.2 µM).

Question: And the MIC [5]?
Answer: Its MIC is 4.69 µg/mL (≈ 16.5 µM).

Question: How did the IC50 [1] turn out when `Cc1cc2c(c(O)c1O)[C@H](C)CC1=C2[C@@H](C)COC1(C)C` [POPULENE D] was run?
Answer: Its IC50 is 3.1 µg/mL (≈ 10.7 µM).

Question: And the IC50 [2]?
Answer: Its IC50 is 1.85 µg/mL (≈ 6.41 µM).

Question: And the IC50 [3]?
Answer: Its IC50 is 0.95 µg/mL (≈ 3.29 µM).

Question: What about the IC50 [4] of the same compound?
Answer: Its IC50 is 2.37 µg/mL (≈ 8.22 µM).

Question: And the MIC [5]?
Answer: Its MIC is 4.69 µg/mL (≈ 16.3 µM).
